Experiments:
[1] = Liquid; for mass density: 298.15 K, 101.33 kPa, Vibrating tube method; for vapor or sublimation pressure: Ebulliometric method (Recirculating still)
[2] = refractive index (Na D-line) (dimensionless); details: 101.33 kPa, Liquid, Standard Abbe refractometry
[3] = excess molar enthalpy (molar enthalpy of mixing); xn = mol fraction of the nth substance listed; details: 298.15 K, 101 kPa, Liquid, Flow calorimetry
[4] = xn = mol fraction of the nth substance listed; details: 101 kPa, Liquid, Vibrating tube method

CCOC(C)(C)CC [1,1-dimethylpropyl ethyl ether]
Details | mass density [kg/m3]
[1] | 760.52

Details | refractive index | vapor or sublimation pressure [kPa]
[1], 324.31 K | – | 17.7
[1], 331.83 K | – | 24
[1], 343.83 K | – | 37.6
[1], 345.82 K | – | 40.3
[1], 349.21 K | – | 45.4
[1], 351.71 K | – | 49.5
[1], 355.12 K | – | 55.5
[1], 357.39 K | – | 59.9
[1], 358.01 K | – | 61
[1], 358.09 K | – | 61.3
[1], 359.96 K | – | 65.1
[1], 362.13 K | – | 69.7
[1], 364.42 K | – | 74.9
[1], 366.44 K | – | 79.6
[1], 367.36 K | – | 81.8
[1], 368.16 K | – | 83.8
[1], 373.7 K | – | 98.9
[1], 374.41 K | – | 101
[2], 293.15 K | 1.39112 | –
[2], 298.15 K | 1.38858 | –

CCOC(C)(C)CC [1,1-dimethylpropyl ethyl ether] + CCC(C)(C)O
[3]
Details | excess molar enthalpy [kcal/mol]
x1 = 0.1005 | 0.0565
x1 = 0.2006 | 0.107
x1 = 0.3013 | 0.151
x1 = 0.4018 | 0.187
x1 = 0.5013 | 0.214
x1 = 0.601 | 0.23
x1 = 0.7003 | 0.232
x1 = 0.8011 | 0.215
x1 = 0.9003 | 0.159

[4]
Details | mass density [kg/m3]
297.7 K, x1 = 0.1005 | 798.8
297.71 K, x1 = 0.2006 | 793.2
297.71 K, x1 = 0.3013 | 788.2
297.71 K, x1 = 0.4018 | 783.4
297.71 K, x1 = 0.5013 | 778.9
297.71 K, x1 = 0.601 | 774.7
297.71 K, x1 = 0.7003 | 770.9
297.71 K, x1 = 0.8011 | 767.1
297.72 K, x1 = 0.9003 | 763.7

CCOC(C)(C)CC [1,1-dimethylpropyl ethyl ether] + CCC(C)O
[3]
Details | excess molar enthalpy [kcal/mol]
x1 = 0.1011 | 0.0648
x1 = 0.2007 | 0.123
x1 = 0.3008 | 0.172
x1 = 0.4013 | 0.208
x1 = 0.5005 | 0.229
x1 = 0.6008 | 0.236
x1 = 0.7012 | 0.226
x1 = 0.8001 | 0.196
x1 = 0.899 | 0.133

[4]
Details | mass density [kg/m3]
297.67 K, x1 = 0.7012 | 770.2
297.67 K, x1 = 0.8001 | 766.9
297.68 K, x1 = 0.5005 | 777.9
297.68 K, x1 = 0.6008 | 774
297.68 K, x1 = 0.899 | 763.8
297.69 K, x1 = 0.1011 | 796.8
297.69 K, x1 = 0.2007 | 791.6
297.69 K, x1 = 0.3008 | 786.6
297.69 K, x1 = 0.4013 | 782

CCOC(C)(C)CC [1,1-dimethylpropyl ethyl ether] + CCCCO
[3]
Details | excess molar enthalpy [kcal/mol]
x1 = 0.101 | 0.0285
x1 = 0.2005 | 0.06
x1 = 0.3022 | 0.0905
x1 = 0.401 | 0.116
x1 = 0.5023 | 0.135
x1 = 0.6005 | 0.147
x1 = 0.7009 | 0.147
x1 = 0.7999 | 0.133
x1 = 0.902 | 0.0913

mass density [kg/m3], [4]
Details | x1 = 0.101 | x1 = 0.2005 | x1 = 0.3022 | x1 = 0.401 | x1 = 0.5023 | x1 = 0.6005 | x1 = 0.7009 | x1 = 0.7999 | x1 = 0.902
297.7 K | 801 | 796.1 | – | 786.6 | 782 | – | – | – | 764.8
297.71 K | – | – | 791.1 | – | – | 777.5 | 773.3 | 769.2 | –

CCC(C)(C)O [2-methylbutan-2-ol]
Details | mass density [kg/m3]
[1] | 805.29

Details | refractive index | vapor or sublimation pressure [kPa]
[1], 334.98 K | – | 18.8
[1], 344.45 K | – | 29.4
[1], 351.18 K | – | 39.5
[1], 354.1 K | – | 44.7
[1], 356.81 K | – | 50.1
[1], 358.12 K | – | 52.8
[1], 359.14 K | – | 55
[1], 361.21 K | – | 59.7
[1], 363.43 K | – | 65.2
[1], 365.23 K | – | 69.8
[1], 367.1 K | – | 75
[1], 368.88 K | – | 80.1
[1], 371.04 K | – | 86.7
[1], 375.78 K | – | 102.7
[2], 298.15 K | 1.40248 | –

CCCCO [butan-1-ol]
Details | mass density [kg/m3]
[1] | 805.97

Details | refractive index | vapor or sublimation pressure [kPa]
[1], 345.91 K | – | 15.6
[1], 358.05 K | – | 27.4
[1], 359.46 K | – | 29.4
[1], 366.26 K | – | 39.3
[1], 369.57 K | – | 45.1
[1], 372.02 K | – | 49.8
[1], 374.43 K | – | 54.9
[1], 376.72 K | – | 60.1
[1], 378.46 K | – | 64.2
[1], 380.74 K | – | 70.2
[1], 382.55 K | – | 75.1
[1], 384.3 K | – | 80.1
[1], 385.78 K | – | 84.6
[1], 390.41 K | – | 100
[2], 298.15 K | 1.3972 | –

CCC(C)O (configuration not stated) [butan-2-ol]
Details | mass density [kg/m3]
[1] | 802.71

Details | refractive index | vapor or sublimation pressure [kPa]
[1], 330.11 K | – | 15.7
[1], 337.99 K | – | 23.3
[1], 345.15 K | – | 32.7
[1], 354.49 K | – | 49.4
[1], 357.15 K | – | 55.3
[1], 358.16 K | – | 57.3
[1], 358.98 K | – | 59.6
[1], 362.88 K | – | 69.9
[1], 365.08 K | – | 76.3
[1], 366.13 K | – | 79.5
[1], 367.13 K | – | 82.9
[1], 371.51 K | – | 98.3
[1], 372.43 K | – | 100.6
[2], 298.15 K | 1.3951 | –
